Measured values published in patent publication US20240294478A1, “ANTI-CANCER COMPOUNDS AND METHODS OF USE” (YALE UNIVERSITY, priority 2021, published 2024).
Read-outs that look alike come from different tables or passages of the source.

What was measured:
[1] = system: four isogenic LN229 glioblastoma cell lines; experiment: Short-term cell viability assays, statements across the isogenic lines; assay type: cell-based, human; details: regardless of MMR status
Experimental: (§1) LN229 MGMT- and MGMT+ cell lines were a gift from B. Kaina (Johannes Gutenberg University Mainz, Mainz, Germany) and grown in Gibco® Duilbecco's Modified Eagle Medium with 10% fetal bovine serum (DMEM). For each compound tested, the relationship between MGMT status and MMR status and compound activity, in terms of IC50 values ([…]), was determined by the following method. On day 1, LN229 isogenic cells of varying MGMT and MMR status were seeded in 96 well format at a density of 2000 cells/well in 100 μL of DMEM media and allowed to adhere overnight. On day 2, a drug master plate was made with 100×the desired maximal concentration of test compound and serially diluted by 2 until 100×the minimal desired concentration, with one DMSO control. Then daughter plates were created with varied concentrations from 3-times the minimal concentration to 3-times the maximal desired concentration. Afterwards, 50 μL of daughter drug plate was added to 100 μL of the seeded cells for a final concentration of 1×in triplicate. Cells were allowed to grow for 6 days. On day 7, the cells were fixed, and stained with Hoechst nuclear dye and imaged to determine growth inhibition.
(§2) For each compound tested, the relationship between MGMT status and MMR status and compound activity, in terms of IC50 values (in μM), was determined. In addition, for each compound, the therapeutic index (TI) was calculated, according to the equation MGMT TI=IC50 (MGMT+/MMR+) divided by IC50 (MGMT−/MMR+). The T1 indicates the efficacy of a compound in treating the targeted MGMT-cancer cells as compared to potential for the same compound to damage, or have adverse effects against, normal cells which are MGMT+cells, The higher the value of the TI, the safer the compound is. […] MMR RI (resistance index)=IC50 (MGMT−/MMR−) divided by IC50 (MGMT−/MMR+). The higher the value of the RI, the less likely that resistance to the compound will develop.
(§3) Short-term Cell Viability Assay. Cells were seeded in 96-well plates at 1000 or 2000 cells/well and allowed to adhere at 23° C. for 60 min and then incubated overnight at 37° C. Cells were treated with indicated concentrations of compounds in triplicate for 4-6 days prior to fixation with 3.7% paraformaldehyde and nuclear staining with 1 μg/mL Hoechst 33342 dye. Cells were imaged on a Cytation 3 imaging reader (BioTek) and quantified using CellProfiler software. For in vitro short-term growth delay experiments, IC50 values were determined from the nonlinear regression equation, [inhibitor] vs normalized response with variable slope.

[2] = system: LN229 MGMT+ shPMS2 cells; experiment: Short-term viability assay, LN229 MGMT+ shPMS2; assay type: cell-based; details: Homo sapiens, LN-229, Table III, read-out: IC50 against LN229 cell lines, MGMT MMR−
Experimental: The activity of KL-50 in MGMT-LN229 cells engineered to lack expression of other key MMR proteins including MSH6, MLH1, PMS2, and MSH3 was also confirmed. Western blotting was performed in LN229 MGMT+/−cells with stable expression of shRNA targeting MSH6, MLH1, PMS2, or MSH3 to confirm depletion of the shRNA targets. In shMSH6 cells, there was reduced expression of MSH2, and in shMLH1 cells, there was loss of PMS2, due to destabilization in the setting of loss of their heterodimeric partners. GAPDH serves as loading control. […] Short-term viability assay curves for KL-50 in LN229 MGMT+/−, MMR+/shMSH6 cells. […] Short-term viability assay curves for KL-50 in LN229 MGMT+/−, MMR+/shMLH1 cells. […] Short-term viability assay curves for KL-50 in LN229 MGMT+/−, MMR+/shPMS2 cells. […] Short-term viability assay curves for KL-50 in LN229 MGMT+/−, MMR+/shMSH3 cells.
MMR Protein shRNA Knockdown. pGIPZ lentiviral shRNA vectors targeting MSH2, MSH6, MLH1, PMS2, and MSH3 were purchased from Horizon Discovery (Table IV). […]
Short-term Cell Viability Assay. […] Cells were imaged on a Cytation 3 imaging reader (BioTek) and quantified using CellProfiler software. For in vitro short-term growth delay experiments, IC50 values were determined from the nonlinear regression equation, [inhibitor] vs normalized response with variable slope.

[3] = system: LN229 MGMT−/MMR+ cells; experiment: Short-term cell viability assay, LN229 MGMT-/MMR+; assay type: cell-based, human; details: for IC50: Homo sapiens, read-out: IC50 against LN229 cell lines, MGMT− MMR+; for MGMT− TI: Table III
Experimental: as §1, §2, §3

[4] = system: LN229 MGMT−/MMR− cells; experiment: Short-term cell viability assay, LN229 MGMT-/MMR- (shRNA targeting MSH2); assay type: cell-based, human; details: for IC50: Homo sapiens, read-out: IC50 against LN229 cell lines, MGMT− MMR−; for activity in MGMT−/MMR− cells, in words: LN229 MGMT−/MMR−
Experimental: as §1
For each compound tested, the relationship between MGMT status and MMR status and compound activity, in terms of IC50 values (in μM), was determined. In addition, for each compound, the therapeutic index (TI) was calculated, according to the equation MGMT TI=IC50 (MGMT+/MMR+) divided by IC50 (MGMT−/MMR+). […] MMR RI (resistance index)=IC50 (MGMT−/MMR−) divided by IC50 (MGMT−/MMR+).
as §3, with “Cells were treated with indicated concentrations of compounds in triplicate for 4-6 days prior to fixation with 3.7% paraformaldehyde and nuclear staining with 1 μg/mL Hoechst 33342 dye.” left out

[5] = LN-229, 144 h, Table 1, 6 days growth

Row | Compound | activity in MGMT+ cells, in words [1] | IC50 [2] | IC50 ([3]; LN-229, Table III, shRNA None) | IC50 ([3]; LN-229, Table II) | TI / RI, in words ([3]; LN229 isogenic lines) | MGMT− TI (therapeutic index) ([3]; Table II, IC50 (MGMT+/MMR+) divided by IC50 (MGMT−/MMR+)) | MGMT− TI ([3]; shRNA None) | IC50 ([4]; LN-229, Table II) | activity in MGMT−/MMR− cells, in words [4] | MGMT− RI (resistance index) ([4]; Table II, IC50 (MGMT−/MMR−) divided by IC50 (MGMT−/MMR+)) | IC50 [3, 5] | IC50 [4, 5]
1 | NC(=O)c1ncn2c(=O)n(CCF)nnc12 [KL-50] | limited activity | 215 ± 16 µM | 13.2 ± 0.8 µM | 24.7 ± 4.1 µM | superior TI and RI | 24 | 22 | 22 ± 6.9 µM | exquisite sensitivity | 0.9 | – | –
2 | Cn1nnc2c(C(N)=O)ncn2c1=O [TMZ, 4-methyl-5-oxo-2,3,4,6,8-pentazabicyclo[4.3.0]nona-2,7,9-triene-9-carboxamide, reference compound] | essentially inactive | 700 ± 58 µM | 5.1 ± 0.8 µM | 8.3 ± 3.5 µM | – | – | 137 | 838 ± 100 µM | essentially inactive | – | 8.3 ± 3.5 µM | 838 ± 100 µM
